The numbers were not newly measured in US11324962B2, “Magnetic field enhancement of chemotherapy for tumor treatment” (priority 2018, dated 2022), which cites them from elsewhere.

SMILES strings stand for the structures.

For the series the following is noted: in vivo.

Turning to `O=C1[O][Pt]2([NH][C@@H]3CCCC[C@H]3[NH]2)[O]C1=O` [oxaliplatin], the biological half-life is reported as 25 minutes.
